According to US20250302817A1, “METHODS FOR TREATING PTEN-MUTANT TUMORS” (Icahn School of Medicine at Mount Sinai, priority 2016, published 2025):

What was measured:
[1] = cited from earlier work
PI3K signaling = experiment: Immunoblot of pAKT in Pten KO and WT cells; format: cell-based; settings: 50 μM A771726
Protocol: Note that here as well as in FIG. 2, H-I, a large amount of DMSO was used in each condition to match the amount of orotate needed, narrowing the growth differential normally observed between leflunomide-treated and untreated cells in the PTEN mutant setting. FIG. 8B is a bar graph and immunoblot depicting cells transfected with siRNA against DHODH. The bar graph depicts cell viability measured using annexin V and 7AAD. 0.5 μg/mL actinomycin D was a positive control for cell death. (Students t-test, *p<0.05, n=3). […] FIG. 8C is an immunoblot of DHODH in Pten KO and WT cells. FIG. 8D is an immunoblot of pAKT in Pten KO and WT cells with or without treatment with 50 μM A771726. FIG. 8E and FIG. 8F are bar graphs depicting the GI50s of cells treated with dose titrations of 5-fluorouracil or mercaptopurine, respectively (Student's t-test, p>0.05, n=3). FIG. 8G depicts the confluence of prostate cells grown in media containing full glutamine (4 mM) or no added glutamine. Data shown as means±SD.
Samples were lysed in 2× Laemelli sample buffer with mercaptoethanol and were boiled before separation by SDS-PAGE on Tris-Glycine gels (Invitrogen EC60352). Wet-transfer to PVDF (Fisher ipvh00010) was followed by blocking for 1 hour in 10% nonfat milk (Fisher M-0841) in TBST. […]

[2] = system: ATR phosphorylation of CHK1 at serine 345; experiment: Immunoblot of pChk1; format: cell-based; settings: 150 μM A771726; Pten WT versus Pten^−/− cells

C/C(O)=C(\C#N)C(=O)Nc1ccc(C(F)(F)F)cc1 [teriflunomide, (Z)-2-Cyano-3-hydroxy-but-2-enoic acid-(4trifluoromethylphenyl)-amide]
free fraction of teriflunomide ([1]; patients with chronic renal insufficiency on CAPD or hemodialysis): almost doubled
impact of CAPD or hemodialysis on circulating levels of teriflunomide ([1]; single dose, patients (n=6) with chronic renal insufficiency): neither had a significant impact
effect on PI3K signaling (pAKT immunoblot) (PI3K signaling): did not affect PI3K signaling
ATR phosphorylation of CHK1 at serine 345 [2]: triggered ATR phosphorylation of CHK1 at serine 345 in Pten WT, but to a much lesser extent in Pten^−/− cells
